According to paper PMC10753699, “Synthesis of Some New 1,3,4-Oxadiazole Derivatives and Evaluation of Their Anticancer Activity” (ACS Omega, 2023):

Experiments:
[1] = test system: L929 murine fibroblast cell line; test: MTT cell viability / cytotoxicity on L929 (healthy cells); format: cell-based, mouse; settings: mean ± S.D. of three determinations
Experimental: (§1) In 75 cm^2 sterile plastic tissue culture flasks, the human lung adenocarcinoma A549 and the mouse fibroblast L929 cell lines were cultured in 90% RPMI (Sigma, Deisenhofen, Germany) media supplemented with 10% (v/v) FBS (Gibco, Paisley, UK) and adherent monolayers of penicillin/streptomycin (100 units/mL) from Gibco, Paisley, UK. These cells were cultured at 37 °C in an environment that was humidified and contained 5% CO2.
(§2) The MTT (3-(4,5-dimethylthiazol-2-yl)-2,5-diphenyltetrazolium bromide) method was applicated to assess the cell viability of L929, C6 and A549 cell lines against the tested compounds according to the reported data.[51] In 96-well plates with a flat bottom, the A549, C6, and L929 cells were cultivated at a density of 5 × 10^3 cells per well. […] After addition, they were incubated for a full day in culture wells. Following the incubation period, 20 μL of phosphate-buffered saline (PBS) (Gibco, Paisley, UK) containing 5 mg/mL MTT powder (Sigma-Aldrich, St. Louis, MO, USA) was added to each well. The medium was taken out of the plate and replaced with 100 μL of DMSO in each well to dissolve the dye. This was left for 2 to 4 h under the same conditions and then left for 10 min. At the conclusion of the procedure, purple formazan, the reduction product of the MTT agent, was formed by the mitochondrial dehydrogenase enzyme of intact cells. A microtiter plate reader (BioTek Plate Reader, Winooski, VT, USA) was used to measure the cells at 540 nm. Cell viability was measured as a percentage and contrasted with that of the cells in the control group. Half-maximal inhibitory concentration 50 (IC50) values were determined by repeating each concentration in three wells and identifying the drug concentrations that decreased the absorbance to 50% of control values. The medium control served as the basis for calculating the percentage of viable cells.

[2] = target: T1, MMP-9 enzyme (Homo sapiens, UniProt P14780); test: MMP-9 colorimetric inhibition assay; format: biochemical; settings: for inhibition at 100 µg/mL: at 100 μg/mL
T1 construct: purchased EnzoLife Sciences Inc. (Farmingdale, New York, NY, USA)
T1 sequence (P14780 107-444 limits assumed): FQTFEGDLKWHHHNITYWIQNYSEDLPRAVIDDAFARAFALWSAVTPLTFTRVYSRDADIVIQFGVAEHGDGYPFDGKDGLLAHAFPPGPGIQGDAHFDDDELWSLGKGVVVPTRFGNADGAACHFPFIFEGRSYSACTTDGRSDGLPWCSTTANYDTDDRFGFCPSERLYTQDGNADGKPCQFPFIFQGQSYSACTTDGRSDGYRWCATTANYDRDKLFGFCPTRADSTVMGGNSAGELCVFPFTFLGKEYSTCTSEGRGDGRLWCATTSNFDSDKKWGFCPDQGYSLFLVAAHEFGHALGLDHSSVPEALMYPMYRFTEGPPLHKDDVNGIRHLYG
From the text: As described in our previous study,[36] the method was applied in exactly the same manner. EnzoLife Sciences Inc. provided MMP-9 colorimetric kits (Farmingdale, New York, NY, USA). The MMP Colorimetric Drug Discovery Kits are a comprehensive test technique that uses a thiopeptide (Ac-PLG-[2-mercapto-4-methyl-pentanoyl]-LG-OC2H5) as a chromogenic substrate to screen MMP inhibitors. Using a microplate reader (BioTek, PowerWave, Gen5 software, Winooski, VT, USA) at room temperature, the UV absorbance was measured at 412 nm. NNGH was employed as an inhibitor of control.

[3] = test system: C6 rat glioma cell line; test: MTT cell viability / cytotoxicity on C6; format: cell-based; settings: mean ± S.D. of three determinations
Experimental: as §2

[4] = test system: A549 human lung cancer cell line; test: MTT cell viability / cytotoxicity on A549; format: cell-based; settings: for IC50: MTT, mean ± S.D. of three determinations
Experimental: as §1, §2

[5] = test system: A549 cells; test: Mitochondrial membrane depolarization (JC-1, flow cytometry); format: cell-based, human; settings: A549, IC50 concentration, 24 h
Experimental: Staining of cells with JC-1 was realized according to the manufacturer’s recommendations of BD, Pharmingen Flow cytometry kit. […] For this purpose, cells were seeded at an optimal density in six-well plates (not exceeding 1 × 10^6/mL cells). The cells were then incubated with the substances to be tested at the appropriate concentration and time. After the treatment, each cell suspension was taken into a 15 mL polystyrene centrifuge tube and the cells were centrifuged at 400g for 5 min and removed from the supernatant. 0.5 mL of a freshly prepared working solution was added to each pellet, and the solution was vortexed. The test cells were soaked in a JC-1 working solution at 37 °C for 10–15 min, and the cells were washed twice. In the first wash, 2 mL of 1X assay buffer was added and the cells were suspended sensitively. Then, the cells were centrifuged at 400g for 5 min and the supernatant was removed, carefully. In the second wash, 1 mL of 1X assay buffer was added and vortexed. After the cells were centrifuged at 400g for 5 min, each cell pellet was suspended in 0.5 mL 1X assay buffer and vortexed. Finally, the cell was analyzed by a flow cytometer.

[6] = test system: A549 cells; test: Cell cycle analysis by flow cytometry; format: cell-based, human; settings: A549, 24 h incubation
Experimental: Following a 24 h incubation period with the compounds, a cell cycle analysis measurement methodology was implemented in compliance with the manufacturer’s instructions for A549 cells (BD, Biosciences). Next, the cells were immersed in citrate buffer for a short while. At room temperature, the cells were centrifuged for 5 min at 400 g. After the supernatant was decanted, 250 μL of solution A was added to the pellet, and it was allowed to sit at room temperature for 10 min. Solution B (200 μL) was then added, carefully mixed, and incubated at room temperature for 10 min. Solution C (200 μL) was then added. It was gently mixed, allowed to stand at 4 °C for 10 min in the dark, and then examined using BD Bioscience’s MODFID software on a flow cytometer. This method was applied in our previous study.[54]

[7] = test system: A549 cells; test: Early/late apoptosis by Annexin V-FITC/PI flow cytometry; format: cell-based, human; settings: A549, IC50 dose, 24 h incubation
Experimental: Phosphatidylserine externalization, a marker of early apoptosis, was assessed using the FITC Annexin V apoptosis detection kit (BD Pharmingen, San Jose, CA, USA) on a BD FACSAria flow cytometer. Following their collection, the A549 and L929 cells were twice washed in ice-cold PBS before being resuspended in 100 μL of binding buffer. The cells were treated with a volume of 5 μL (5 μg/mL) of Annexin V-FITC and PI, and they were incubated for 15 min at room temperature (20–25 °C) in the dark. Following that, 400 μL of binding buffer was added to the combination samples, and FACSDiva version 6.1.1 was used to analyze the samples on a BD FACSAria flow cytometer.

[8] = test system: caspase-3; test: Caspase-3 activation in A549 cells; format: cell-based, human; settings: A549, IC50 of the compounds, 24 h
Experimental: The Spectrofluorometric Caspase-3 Assay kit (BD Pharmingen, Franklin Lakes, NJ) was used to assess the activation of caspase-3. The purpose of the kit was to measure the early indicator of cells going through apoptosis, known as caspase-3 or the DEVD-cleaving activity. First, 1 × 10^6 cells/mL of cells were resuspended in cold cell lysis buffer, rinsed with PBS, and then allowed to sit on ice for 30 min. […] In each reaction, a well containing 0.2 mL of 1 x HEPES buffer was filled with […] of reconstituted AcDEVD-AMC, a synthetic tetrapeptide fluorogenic substrate for caspase-3 activity. Each reaction/well received 20 μL of cell lysate. The reaction mixtures were incubated at 37 °C for 1 h. Using a microplate reader (Perkin-Elmer/Victor/X3) with an excitation wavelength of 380 nm and an emission wavelength of 460 nm, the amount of AMC released from Ac-DEVD-AMC was quantified. When compared with controls, apoptotic cell lysates containing active caspase-3 produced a significant emission. […] For all doses, duplicate wells were used. This experiment was performed according to Yurttaş et al.[52]

[9] = Mus musculus, L929, L929 healthy cell line
[10] = Homo sapiens, A549, A549 cell line

| SMILES | IC50 [1, 9] [µM] | inhibition at 100 µg/mL [2] [%] | IC50 [3] [µM] | IC50 [4, 10] [µM] | IC50 ([4]; A549 cell line) [µM] | mitochondrial membrane depolarization % [5] [%] | mitochondrial membrane polarization % [5] [%] | % S [6] [%] | G0/G1% [6] [%] | G2/M % [6] [%] | Q1: necrotic cells [7] [%] | Q2 + Q4: early and late apoptotic cells [7] [%] | Q2: late apoptotic cells [7] [%] | Q3: viable cells [7] [%] | Q4: early apoptotic cells [7] [%] | % (+): caspase-3 activity positive cells [8] [%] | % (−): caspase-3 activity negative cells [8] [%] | further results |
| --- | --- | --- | --- | --- | --- | --- | --- | --- | --- | --- | --- | --- | --- | --- | --- | --- | --- | --- |
| CC(=O)Nc1ccccc1OCc1nnc(SCC(=O)Nc2nc3ccccc3s2)o1 [Compound 4a, 2-[(5-((2-Acetamidophenoxy)methyl)-1,3,4-oxadiazol-2-yl)thio]-N-(benzothiazol-2-yl)acetamide] | 586 ± 22.9 | 41.4 ± 1.85 | 18.5 ± 5.58 | 22.3 ± 1.67 | – | – | – | – | – | – | – | – | – | – | – | – | – | melting point: 189 to 194 °C; SI (L929/A549) ([4]; selectivity index = IC50 on normal cells/IC50 on cancer cells): 26.250 |
| CC(=O)Nc1ccccc1OCc1nnc(SCC(=O)Nc2nc3ccc(Cl)cc3s2)o1 [Compound 4b, 2-[(5-((2-Acetamidophenoxy)methyl)-1,3,4-oxadiazol-2-yl)thio]-N-(6-chlorobenzothiazol-2-yl)acetamide] | < 7.96 | 49.5 ± 1.86 | 19.9 ± 6.33 | 24.5 ± 5.76 | – | – | – | – | – | – | – | – | – | – | – | – | – | – |
| COc1ccc2nc(NC(=O)CSc3nnc(COc4ccccc4NC(C)=O)o3)sc2c1 [Compound 4c, 2-[(5-((2-Acetamidophenoxy)methyl)-1,3,4-oxadiazol-2-yl)thio]-N-(6-methoxybenzothiazol-2-yl)acetamide] | 8.52 ± 0.31 | 30.6 ± 2.29 | 22.1 ± 23.7 | > 1030 | > 1000 | – | – | – | – | – | – | – | – | – | – | – | – | – |
| CC(=O)Nc1ccccc1OCc1nnc(SCC(=O)Nc2nc3ccc([N+](=O)[O-])cc3s2)o1 [Compound 4d, 2-[(5-((2-Acetamidophenoxy)methyl)-1,3,4-oxadiazol-2-yl)thio]-N-(6-nitrobenzothiazol-2-yl)acetamide] | < 7.96 | 27.6 ± 2.01 | 28.3 ± 12.1 | > 1030 | > 1000 | – | – | – | – | – | – | – | – | – | – | – | – | IC50 ([1]; L929 healthy cell line): < 7.8 µM |
| COc1ccc(NC(=O)CSc2nnc(COc3ccccc3NC(C)=O)o2)cc1 [Compound 4i, 2-[(5-((2-Acetamidophenoxy)methyl)-1,3,4-oxadiazol-2-yl)thio]-N-(4-methoxyphenyl)acetamide] | 14.6 ± 1.59 | 40.9 ± 2.54 | – | 1.59 ± 0.44 | – | 8.84 | 90.51 | 8.09 | 78.78 | 12.14 | 30.12 | 21.54 | 9.75 | 48.35 | 11.79 | 1.9 | 98.2 | – |
| CC(=O)Nc1ccccc1OCc1nnc(SCC(=O)Nc2ccc(Cl)cc2)o1 [Compound 4k, 2-[(5-((2-Acetamidophenoxy)methyl)-1,3,4-oxadiazol-2-yl)thio]-N-(4-chlorophenyl)acetamide] | 38.2 ± 4.91 | 48.4 ± 3.56 | > 1000 | 7.48 ± 0.58 | – | 6.29 | 93.04 | 18.11 | 63.31 | 18.58 | 33.19 | 17.98 | 10.35 | 48.83 | 7.63 | 1.8 | 98.5 | – |
| CC(=O)Nc1ccccc1OCc1nnc(SCC(=O)Nc2ccc(F)cc2)o1 [Compound 4l, 2-[(5-((2-Acetamidophenoxy)methyl)-1,3,4-oxadiazol-2-yl)thio]-N-(4-fluorophenyl)acetamide] | 397 ± 10.2 | > 75 | > 1000 | 1.8 ± 0.12 | – | 8.71 | 90.58 | 6.62 | 69.36 | 24.03 | 32.81 | 18.49 | 11.46 | 48.70 | 7.03 | 1.4 | 98.8 | IC50 [2]: 2550 ± 660 nM |
| COc1ccc(S(=O)(=O)N(CC(=O)NO)CC(C)C)cc1 [NNGH, N-isobutyl-N-(4-methoxyphenylsulfonyl)glycyl hydroxamic, reference compound] | – | – | – | – | – | – | – | – | – | – | – | – | – | – | – | – | – | IC50 [2]: 7.4 ± 0.2 nM |
| N.N.[Cl][Pt][Cl] [cisplatin, reference compound] | – | – | – | – | 4.98 ± 0.66 | 22.36 | 76.67 | 2.18 | 74.75 | 23.07 | 28.01 | 10.07 | 5.04 | – | 5.03 | 11.3 | 90.0 | – |
